Like-named read-outs stand apart in the source and are kept apart here. Where a SMILES comes first, the peptide text is derived from it. Bridges are numbered along the chain shown (N, C = ends). Where no end group is shown, it is not given here. [ ]: non-standard residue; d: D form. S5 = C=CCCC[C@](C)(N)C(=O)O
Legend:
RXFP3 [1] = molecular target: T1, RXFP3 (Homo sapiens, UniProt Q9NSD7); assay: cAMP activity assay: inhibition of forskolin-induced cAMP accumulation in CHO-K1 cells stably expressing RXFP3; assay type: cell-based; conditions: CHO-K1 cells stably expressing RXFP3, inhibition of cAMP accumulation stimulated by 5 μM forskolin, mean ± SEM, triplicates, three independent experiments
T1 construct: expressed in transfected cells; host or cells: CHO-K1
T1 sequence (Q9NSD7 1-469): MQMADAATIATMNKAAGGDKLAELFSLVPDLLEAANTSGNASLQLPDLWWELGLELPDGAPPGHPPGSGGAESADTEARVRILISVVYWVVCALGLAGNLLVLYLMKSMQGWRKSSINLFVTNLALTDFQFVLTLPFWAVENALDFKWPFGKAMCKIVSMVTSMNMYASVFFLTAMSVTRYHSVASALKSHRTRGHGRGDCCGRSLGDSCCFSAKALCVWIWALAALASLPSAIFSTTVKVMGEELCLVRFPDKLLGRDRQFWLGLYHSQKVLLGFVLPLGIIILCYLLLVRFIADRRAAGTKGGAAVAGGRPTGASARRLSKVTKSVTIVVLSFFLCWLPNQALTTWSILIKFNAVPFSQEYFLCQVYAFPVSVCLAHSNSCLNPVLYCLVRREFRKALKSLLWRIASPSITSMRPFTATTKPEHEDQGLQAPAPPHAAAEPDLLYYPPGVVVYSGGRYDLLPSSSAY
Procedure: CHO-KI cells stably expressing RXFP3 were used to study the ability of the novel analogues to inhibit forskolin-induced cAMP accumulation. Assays were conducted as previously described. Briefly, 5 μM forskolin was used to stimulate the cells and increasing concentrations of the novel analogues were added to measure the dose-dependent reduction in the cAMP response via activation of the Gi/o-coupled RXFP3. Each analogue was tested in triplicates and each experiment was independently repeated three times. Data are presented as mean ± SEM and were analysed using GraphPad Prism 8.0. Statistical analyses were conducted using 1-way ANOVA and uncorrected Fisher’s least square difference.
(§1) To determine their binding affinity, the ability of increasing concentration of analogues to compete with europium labelled R3 B1-22R were measured using CHO cells stably expressing RXFP3 [37]. Their potency at RXFP3 was measured by inhibition of cAMP accumulation induced by forskolin, as RXFP3 couples to an inhibitory G-protein.

RXFP3 [2] = molecular target: T1, RXFP3; assay: Competition binding assay with Eu-labelled R3 B1-22R on CHO-K1 cells stably expressing RXFP3; conditions: read-out: pKi [logM] (converted)
Procedure: Determination of binding affinity in this study was carried out as previously described. Briefly, CHO-K1 cells stably expressing RXFP3 [38] were treated with 5 nM Eu-labelled R3 B1-22R with increasing concentrations of novel analogues. Fluorescence measurement were recorded with 340 nm excitation and 614 nm emission wavelengths. Assays were conducted in triplicates and independently repeated at least three times. […] Statistical analyses were conducted using 1-way ANOVA with uncorrected Fisher’s least square difference in GraphPad Prism 8.0.
as §1

Compound	EC50 (RXFP3 [1]; SEM) [nM]	Ki (RXFP3 [2]; SEM) [nM]	Ki (RXFP3 [2]) [nM]	EC50 (RXFP3 [1]) [nM]
CC[C@H](C)[C@@H]1NC(=O)[C@H](Cc2ccccc2)NC(=O)[C@@](C)(NC(=O)[C@H](CCCNC(=N)N)NC(=O)CNC(=O)[C@H](CO)NC(=O)[C@H](CCCCN)NC(=O)[C@H](CCCCN)NC(=O)[C@H](CCCCN)NC(=O)[C@@H](N)CCCCN)CCCC=CCCC[C@@](C)(C(=O)N[C@H](C(=O)N[C@H](C(=O)N[C@@H](Cc2ccccc2)C(=O)N[C@H](C(=O)N[C@@H](CO)C(=O)NCC(=O)NCC(=O)N[C@@H](CO)C(=O)N[C@@H](CCCNC(=N)N)C(=O)N[C@@H](Cc2c[nH]c3ccccc23)C(=O)O)[C@@H](C)O)[C@@H](C)CC)C(C)C)NC(=O)[C@H](CCCNC(=N)N)NC1=O [Analogue 12] (H-KKKKSGR[S5]FIR[S5]VIFTSGGSRW-OH; staple 8-12)	6.46	182	–	–
CC[C@H](C)[C@H](NC(=O)[C@H](Cc1ccccc1)NC(=O)C(C)(C)NC(=O)[C@H](CCCNC(=N)N)NC(=O)CNC(=O)[C@H](CO)NC(C)=O)C(=O)N[C@@H](CCCNC(=N)N)C(=O)NC(C)(C)C(=O)NC(C)(C)C(=O)N[C@H](C(=O)N[C@@H](Cc1ccccc1)C(=O)N[C@H](C(=O)N[C@@H](CO)C(=O)NCC(=O)NCC(=O)N[C@@H](CO)C(=O)N[C@@H](CCCNC(=N)N)C(=O)N[C@@H](Cc1c[nH]c2ccccc12)C(=O)O)[C@@H](C)O)[C@@H](C)CC [Analogue 4] (HELM PEPTIDE1{[ac].S.G.R.[Aib].F.I.R.[Aib].[Aib].I.F.T.S.G.G.S.R.W}$$$$V2.0)	33.1	759	–	–
RAAPYGVRLSGREFIRAVIFTSGGSRW [H3 B-chain, reference compound]	–	1230	–	–
CC[C@H](C)[C@H](NC(=O)[C@@H](NC(=O)C(C)(C)NC(=O)[C@H](CCCNC(=N)N)NC(=O)[C@@H](NC(=O)C(C)(C)NC(=O)C(C)(C)NC(=O)[C@H](CCCNC(=N)N)NC(=O)CNC(=O)[C@H](CO)NC(C)=O)[C@@H](C)CC)C(C)C)C(=O)N[C@@H](Cc1ccccc1)C(=O)N[C@H](C(=O)N[C@@H](CO)C(=O)NCC(=O)NCC(=O)N[C@@H](CO)C(=O)N[C@@H](CCCNC(=N)N)C(=O)N[C@@H](Cc1c[nH]c2ccccc12)C(=O)O)[C@@H](C)O [Analogue 2] (HELM PEPTIDE1{[ac].S.G.R.[Aib].[Aib].I.R.[Aib].V.I.F.T.S.G.G.S.R.W}$$$$V2.0)	550	1480	–	–
CC[C@H](C)[C@H](NC(=O)[C@H](Cc1ccccc1)NC(=O)C(C)(C)NC(=O)[C@H](CCCNC(=N)N)NC(=O)CNC(=O)[C@H](CO)NC(C)=O)C(=O)N[C@@H](CCCNC(=N)N)C(=O)NC(C)(C)C(=O)NC(C)(C)C(=O)N[C@H](C(=O)N[C@@H](Cc1ccccc1)C(=O)NC(C)(C)C(=O)N[C@@H](CO)C(=O)NCC(=O)NCC(=O)N[C@@H](CO)C(=O)N[C@@H](CCCNC(=N)N)C(=O)N[C@@H](Cc1c[nH]c2ccccc12)C(=O)O)[C@@H](C)CC [Analogue 10] (HELM PEPTIDE1{[ac].S.G.R.[Aib].F.I.R.[Aib].[Aib].I.F.[Aib].S.G.G.S.R.W}$$$$V2.0)	3240	–	> 10000	–
CC[C@H](C)[C@@H]1NC(=O)[C@H](Cc2ccccc2)NC(=O)[C@@H](NC(=O)[C@H](CCCNC(=N)N)NC(=O)CNC(=O)[C@H](CO)NC(C)=O)CSCc2cccc(c2)CSC[C@@H](C(=O)N[C@H](C(=O)N[C@H](C(=O)N[C@@H](Cc2ccccc2)C(=O)N[C@H](C(=O)N[C@@H](CO)C(=O)NCC(=O)NCC(=O)N[C@@H](CO)C(=O)N[C@@H](CCCNC(=N)N)C(=O)N[C@@H](Cc2c[nH]c3ccccc23)C(=O)O)[C@@H](C)O)[C@@H](C)CC)C(C)C)NC(=O)[C@H](CCCNC(=N)N)NC1=O [Analogue 17] (HELM PEPTIDE1{[ac].S.G.R.C.F.I.R.C.V.I.F.T.S.G.G.S.R.W}|CHEM1{[c1cc(C[*:1])cc(C[*:2])c1]}$PEPTIDE1,CHEM1,5:R3-1:R1|PEPTIDE1,CHEM1,9:R3-1:R2$$$V2.0)	851	1050	–	–
CC[C@H](C)[C@H](NC(=O)[C@H](Cc1ccccc1)NC(=O)C(C)(C)NC(=O)[C@H](CCCNC(=N)N)NC(=O)CNC(=O)[C@@H](N)CO)C(=O)N[C@@H](CCCNC(=N)N)C(=O)NC(C)(C)C(=O)NC(C)(C)C(=O)N[C@H](C(=O)N[C@@H](Cc1ccccc1)C(=O)N[C@H](C(=O)N[C@@H](CO)C(=O)NCC(=O)NCC(=O)N[C@@H](CO)C(=O)N[C@@H](CCCNC(=N)N)C(=O)N[C@@H](Cc1c[nH]c2ccccc12)C(=O)O)[C@@H](C)O)[C@@H](C)CC [Analogue 3] (HELM PEPTIDE1{S.G.R.[Aib].F.I.R.[Aib].[Aib].I.F.T.S.G.G.S.R.W}$$$$V2.0)	91.2	–	–	–
CC[C@H](C)[C@@H]1NC(=O)[C@H](Cc2ccccc2)NC(=O)[C@@H](NC(=O)[C@H](CCCNC(=N)N)NC(=O)CNC(=O)[C@@H](N)CO)CSCc2cccc(c2)CSC[C@@H](C(=O)N[C@H](C(=O)N[C@H](C(=O)N[C@@H](Cc2ccccc2)C(=O)N[C@H](C(=O)N[C@@H](CO)C(=O)NCC(=O)NCC(=O)N[C@@H](CO)C(=O)N[C@@H](CCCNC(=N)N)C(=O)N[C@@H](Cc2c[nH]c3ccccc23)C(=O)O)[C@@H](C)O)[C@@H](C)CC)C(C)C)NC(=O)[C@H](CCCNC(=N)N)NC1=O [Analogue 16] (HELM PEPTIDE1{S.G.R.C.F.I.R.C.V.I.F.T.S.G.G.S.R.W}|CHEM1{[c1cc(C[*:1])cc(C[*:2])c1]}$PEPTIDE1,CHEM1,4:R3-1:R1|PEPTIDE1,CHEM1,8:R3-1:R2$$$V2.0)	1050	1000	–	–
CC[C@H](C)[C@@H]1NC(=O)[C@H](Cc2ccccc2)NC(=O)[C@@H](NC(=O)[C@H](CCCNC(=N)N)NC(=O)CNC(=O)[C@@H](N)CO)CSCC(=O)CSC[C@@H](C(=O)N[C@H](C(=O)N[C@H](C(=O)N[C@@H](Cc2ccccc2)C(=O)N[C@H](C(=O)N[C@@H](CO)C(=O)NCC(=O)NCC(=O)N[C@@H](CO)C(=O)N[C@@H](CCCNC(=N)N)C(=O)N[C@@H](Cc2c[nH]c3ccccc23)C(=O)O)[C@@H](C)O)[C@@H](C)CC)C(C)C)NC(=O)[C@H](CCCNC(=N)N)NC1=O [Analogue 14] (HELM PEPTIDE1{S.G.R.C.F.I.R.C.V.I.F.T.S.G.G.S.R.W}|CHEM1{[O=C(C[*:1])C[*:2]]}$PEPTIDE1,CHEM1,4:R3-1:R1|PEPTIDE1,CHEM1,8:R3-1:R2$$$V2.0)	6170	–	> 10000	–
CC[C@H](C)[C@H](NC(=O)[C@H](Cc1ccccc1)NC(=O)C(C)(C)NC(=O)[C@H](CCCNC(=N)N)NC(=O)CNC(=O)[C@H](CO)NC(C)=O)C(=O)N[C@@H](CCCNC(=N)N)C(=O)NC(C)(C)C(=O)N[C@H](C(=O)N[C@H](C(=O)N[C@@H](Cc1ccccc1)C(=O)NC(C)(C)C(=O)N[C@@H](CO)C(=O)NCC(=O)NCC(=O)N[C@@H](CO)C(=O)N[C@@H](CCCNC(=N)N)C(=O)N[C@@H](Cc1c[nH]c2ccccc12)C(=O)O)[C@@H](C)CC)C(C)C [Analogue 6] (HELM PEPTIDE1{[ac].S.G.R.[Aib].F.I.R.[Aib].V.I.F.[Aib].S.G.G.S.R.W}$$$$V2.0)	1860	1700	–	–
CC[C@H](C)[C@H](NC(=O)[C@H](Cc1ccccc1)NC(=O)C(C)(C)NC(=O)[C@H](CCCNC(=N)N)NC(=O)CNC(=O)[C@@H](N)CO)C(=O)N[C@@H](CCCNC(=N)N)C(=O)NC(C)(C)C(=O)N[C@H](C(=O)N[C@H](C(=O)N[C@@H](Cc1ccccc1)C(=O)NC(C)(C)C(=O)N[C@@H](CO)C(=O)NCC(=O)NCC(=O)N[C@@H](CO)C(=O)N[C@@H](CCCNC(=N)N)C(=O)N[C@@H](Cc1c[nH]c2ccccc12)C(=O)O)[C@@H](C)CC)C(C)C [Analogue 5] (HELM PEPTIDE1{S.G.R.[Aib].F.I.R.[Aib].V.I.F.[Aib].S.G.G.S.R.W}$$$$V2.0)	–	–	–	1020
CC[C@H](C)[C@@H]1NC(=O)[C@H](Cc2ccccc2)NC(=O)[C@@](C)(NC(=O)[C@H](CCCNC(=N)N)NC(=O)CNC(=O)[C@H](CO)NC(C)=O)CCCC=CCCC[C@@](C)(C(=O)N[C@H](C(=O)N[C@H](C(=O)N[C@@H](Cc2ccccc2)C(=O)N[C@H](C(=O)N[C@@H](CO)C(=O)NCC(=O)NCC(=O)N[C@@H](CO)C(=O)N[C@@H](CCCNC(=N)N)C(=O)N[C@@H](Cc2c[nH]c3ccccc23)C(=O)O)[C@@H](C)O)[C@@H](C)CC)C(C)C)NC(=O)[C@H](CCCNC(=N)N)NC1=O [Ac-R3B10-27 [13/17 HC], reference compound] (Ac-SGR[S5]FIR[S5]VIFTSGGSRW-OH; staple 4-8)	–	41.7	–	–

Source: article PMC7602263, “Exploring the Use of Helicogenic Amino Acids for Optimising Single Chain Relaxin-3 Peptide Agonists” (Biomedicines, 2020)
